Data as given in US11945822B2, “Pyrazolo-triazine and/or pyrazolo-pxrimidine derivatives as selective inhibitor of cyclin dependent kinase” (QURIENT CO., LTD., priority 2018, dated 2024).

How the values were obtained:
CDK1/Cyclin B = biological target: T1, CDK1/Cyclin B (Homo sapiens, UniProt P06493); assay: Enzymatic assay for CDK1 (FRET based LANCE Ultra kinase assay); type: biochemical; conditions: read-out: CDK1 enzymatic activity (IC50 range)
T1 construct: purchased Invitrogen PR4768C
Outline: (§1)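 TR-FRET (LANCE Ultra) kinase assay at ATP Km, ULight-MBP peptide substrate (68 nM), 8-dose 4-fold compound series in DMSO. Enzymes: […]; 60 min at 23° C., stopped with EDTA plus Eu-anti-phospho-MBP antibody, read 665/615 nm after 60 min.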

CDK2/Cyclin A = biological target: T2, CDK2/Cyclin A (Homo sapiens, UniProt P24941); assay: Enzymatic assay for CDK2 (FRET based LANCE Ultra kinase assay); type: biochemical; conditions: read-out: CDK2 enzymatic activity (IC50 range)
T2 construct: purchased Invitrogen PV6290
Outline: as §1

CDK5/p25 = biological target: T3, CDK5/p25 (Homo sapiens, UniProt Q00535); assay: Enzymatic assay for CDK5 (FRET based LANCE Ultra kinase assay); type: biochemical; conditions: read-out: CDK5 enzymatic activity (IC50 range)
T3 construct: purchased Invitrogen PR8543B
T3 sequence (Q00535 whole entry): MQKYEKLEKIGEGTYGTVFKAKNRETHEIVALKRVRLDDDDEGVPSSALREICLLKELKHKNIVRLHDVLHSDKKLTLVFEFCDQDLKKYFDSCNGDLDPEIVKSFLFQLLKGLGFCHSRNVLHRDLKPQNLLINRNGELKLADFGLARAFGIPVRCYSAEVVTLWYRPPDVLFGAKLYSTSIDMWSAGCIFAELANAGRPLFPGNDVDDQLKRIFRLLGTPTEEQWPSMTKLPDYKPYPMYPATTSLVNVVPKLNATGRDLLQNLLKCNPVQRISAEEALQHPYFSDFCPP
T3 sequence (Q15078 99-307 partner limits assumed): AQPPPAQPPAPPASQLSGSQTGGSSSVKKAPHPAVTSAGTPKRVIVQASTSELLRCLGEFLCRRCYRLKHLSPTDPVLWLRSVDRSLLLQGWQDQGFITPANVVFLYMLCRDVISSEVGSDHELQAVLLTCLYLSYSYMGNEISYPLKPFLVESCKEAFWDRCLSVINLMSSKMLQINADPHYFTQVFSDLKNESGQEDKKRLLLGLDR
Outline: as §1

CDK7/Cyclin H/MNAT1 = biological target: T4, CDK7/Cyclin H/MNAT1 (Homo sapiens, UniProt P50613); assay: Enzymatic assay for CDK7 (FRET based LANCE Ultra kinase assay); type: biochemical; conditions: for IC50: read-out: CDK7 enzymatic activity (IC50 range)
T4 construct: purchased Invitrogen PR6749B
T4 sequence (P50613 whole entry): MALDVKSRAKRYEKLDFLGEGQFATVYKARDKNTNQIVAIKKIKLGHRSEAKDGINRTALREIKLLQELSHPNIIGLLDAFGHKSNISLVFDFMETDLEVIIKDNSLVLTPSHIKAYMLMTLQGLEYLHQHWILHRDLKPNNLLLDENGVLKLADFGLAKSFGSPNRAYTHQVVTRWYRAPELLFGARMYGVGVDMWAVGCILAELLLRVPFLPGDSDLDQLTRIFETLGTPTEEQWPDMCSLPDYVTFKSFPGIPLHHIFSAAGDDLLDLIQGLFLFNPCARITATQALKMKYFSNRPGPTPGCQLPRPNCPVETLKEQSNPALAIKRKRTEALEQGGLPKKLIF
T4 sequence (P51946 whole entry partner): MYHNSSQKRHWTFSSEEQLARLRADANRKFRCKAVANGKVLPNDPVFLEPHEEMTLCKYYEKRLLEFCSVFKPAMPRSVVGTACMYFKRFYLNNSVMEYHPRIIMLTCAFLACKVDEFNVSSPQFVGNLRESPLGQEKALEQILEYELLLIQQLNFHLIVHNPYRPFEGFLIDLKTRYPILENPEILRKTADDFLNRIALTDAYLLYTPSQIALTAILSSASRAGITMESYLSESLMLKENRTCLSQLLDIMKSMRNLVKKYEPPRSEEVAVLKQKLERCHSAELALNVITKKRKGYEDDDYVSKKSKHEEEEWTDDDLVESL
T4 sequence (P51948 whole entry partner): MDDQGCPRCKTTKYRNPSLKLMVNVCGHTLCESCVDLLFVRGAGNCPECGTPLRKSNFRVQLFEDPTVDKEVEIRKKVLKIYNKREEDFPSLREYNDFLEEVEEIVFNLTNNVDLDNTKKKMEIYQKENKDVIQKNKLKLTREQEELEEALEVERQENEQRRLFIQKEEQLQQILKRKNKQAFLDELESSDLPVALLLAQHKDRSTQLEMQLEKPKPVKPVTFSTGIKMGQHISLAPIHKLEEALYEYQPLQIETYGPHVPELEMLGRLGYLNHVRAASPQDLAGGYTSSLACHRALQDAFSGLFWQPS
Outline: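 Inhibition was measured at Km ATP by time-resolved FRET between a Eu anti-phospho antibody and a phosphorylated ULight peptide. The enzyme was the purified CDK7/cyclin complex, and data were curve-fitted.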

H460 = assay: Cellular H460 viability assay (CellTiter-Glo, 72 hours); type: cell-based; conditions: Homo sapiens, NCI-H460
Outline: (§2)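 Growth inhibition is assessed over a 72-hour incubation at 37 °C in 5% CO2, relative to DMSO vehicle (final concentration less than 0.1%). Luminescence from CellTiter-Glo serves as the viability signal.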

MOLT-4 = assay: Cellular MOLT-4 viability assay (CellTiter-Glo, 72 hours); type: cell-based; conditions: Homo sapiens, MOLT4 viability assay
Outline: as §2

RPMI-8226 = assay: Cellular RPMI-8226 viability assay (CellTiter-Glo, 72 hours); type: cell-based; conditions: Homo sapiens
Protocol: All cell lines were routinely tested for mycoplasma.
The effect of the CDK7 inhibitor to inhibit the growth of target cancer cells was evaluated through the 72 hours time period of viability assay. Briefly, the candidate cell line ware plated in 96 well plate at the following density of cells respectively. […] DMSO solvent without compound served as a control and final DMSO concentration less than 0.1%. After 72 hours of incubation at 37° C., 5% CO2 incubator, cells were analyzed for the viability using the CellTiter-Glo Luminescent Cell Viability Assay (Promega, Cat #G7570). All viability assays were performed in duplicate and Luminescence was read using an Envision (Perkin Elmer, USA). Data was analyzed using XLfit software.

HCT116 = assay: Cellular HCT116 viability assay (CellTiter-Glo, 72 hours); type: cell-based; conditions: Homo sapiens, HCT-116
Outline: as §2

MV4-11 = assay: Cellular MV4-11 viability assay (CellTiter-Glo, 72 hours); type: cell-based; conditions: Homo sapiens
Outline: as §2

T1 sequence (P06493 whole entry): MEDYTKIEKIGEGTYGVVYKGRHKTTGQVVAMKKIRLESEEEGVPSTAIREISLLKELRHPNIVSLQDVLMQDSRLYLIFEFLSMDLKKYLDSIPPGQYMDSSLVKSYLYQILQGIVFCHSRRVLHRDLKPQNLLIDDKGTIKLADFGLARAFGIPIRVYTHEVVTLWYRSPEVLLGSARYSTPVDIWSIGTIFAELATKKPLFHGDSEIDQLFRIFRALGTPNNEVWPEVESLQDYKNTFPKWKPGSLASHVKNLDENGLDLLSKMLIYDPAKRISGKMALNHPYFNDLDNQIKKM
T1 sequence (P14635 whole entry partner): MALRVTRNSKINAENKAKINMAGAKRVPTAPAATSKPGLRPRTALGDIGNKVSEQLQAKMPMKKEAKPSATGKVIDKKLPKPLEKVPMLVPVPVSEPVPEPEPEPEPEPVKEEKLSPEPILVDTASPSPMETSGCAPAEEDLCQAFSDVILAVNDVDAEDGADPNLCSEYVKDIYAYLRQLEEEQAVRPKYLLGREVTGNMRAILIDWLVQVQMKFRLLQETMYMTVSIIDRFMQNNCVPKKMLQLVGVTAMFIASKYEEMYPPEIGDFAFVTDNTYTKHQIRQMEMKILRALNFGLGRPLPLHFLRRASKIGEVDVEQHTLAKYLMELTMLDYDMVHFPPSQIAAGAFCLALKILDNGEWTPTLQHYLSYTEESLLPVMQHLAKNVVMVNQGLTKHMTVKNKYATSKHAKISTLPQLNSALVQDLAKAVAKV

Compound | IC50 (CDK1/Cyclin B) [nM] | IC50 (CDK2/Cyclin A) [nM] | IC50 (CDK5/p25) [nM] | CDK1/CDK7: Selectivity of CDK7 inhibition over CDK1 inhibition (CDK7/Cyclin H/MNAT1) | CDK2/CDK7: Selectivity of CDK7 inhibition over CDK2 inhibition (CDK7/Cyclin H/MNAT1) | CDK5/CDK7: Selectivity of CDK7 inhibition over CDK5 inhibition (CDK7/Cyclin H/MNAT1) | IC50 (CDK7/Cyclin H/MNAT1) [nM] | IC50 (H460) [nM] | IC50 (MOLT-4) [nM] | IC50 (RPMI-8226) [nM] | IC50 (HCT116) [nM] | IC50 (MV4-11) [nM]
CC(C)c1cnn2c(NCc3ccccc3-c3cccs3)nc(N3CCC(N)CC3)nc12 [Compound 44] | 100 to 1000 | 100 to 1000 | < 100 | B (B=less than 200 fold, but greater than 20 fold) | B (B=less than 200 fold, but greater than 20 fold) | B (B=less than 200 fold, but greater than 20 fold) | < 100 | < 1000 | 1000 to 10000 | < 1000 |  | 
CC(C)c1cnn2c(NCc3ccccc3N3CCCC3)nc(N3CCC(N)CC3)nc12 [Compound 54] | > 1000 | 100 to 1000 | 100 to 1000 | B (B=less than 200 fold, but greater than 20 fold) | B (B=less than 200 fold, but greater than 20 fold) | C (C=less than 20 fold) | < 100 | < 1000 | 1000 to 10000 | 1000 to 10000 |  | 
CC(C)c1cnn2c(NCc3ccccc3-n3ncc4ccccc43)nc(N3CCC(N)CC3)nc12 [Compound 58] |  |  |  |  |  |  |  |  | 1000 to 10000 | 1000 to 10000 |  | 
CC(C)c1cnn2c(NCc3cccc4ccc(-n5cccn5)nc34)nc(N3CCC(N)CC3)nc12 [Compound 59] |  |  |  |  |  |  |  | 1000 to 10000 | 1000 to 10000 | 1000 to 10000 |  | 
CC(C)c1cnn2c(NCc3ccccc3NC(=O)c3ccccc3)nc(N3CCC(N)CC3)nc12 [Compound 87] | > 1000 | > 1000 | 100 to 1000 | A (A=greater than 200 fold) | A (A=greater than 200 fold) | B (B=less than 200 fold, but greater than 20 fold) | < 100 |  | 1000 to 10000 | < 1000 |  | 
CC(C)c1cnn2c(NCc3cccc4ccc(NC(=O)CCCN(C)C)nc34)nc(N3CCC(N)CC3)nc12 [Compound 95] | > 1000 | 100 to 1000 | 100 to 1000 | A (A=greater than 200 fold) | A (A=greater than 200 fold) | B (B=less than 200 fold, but greater than 20 fold) | < 100 |  | 1000 to 10000 | < 1000 |  | 
CC(C)c1cnn2c(NCc3ccccc3-n3cc4cc(Br)ccc4n3)nc(N3CCC(N)CC3)nc12 [Compound 100] |  |  |  |  |  |  |  | < 1000 | 1000 to 10000 | 1000 to 10000 |  | 
CC(C)c1cnn2c(NCc3ccccc3-n3cc4cc(-c5ccccc5)ccc4n3)nc(N3CCC(N)CC3)nc12 [Compound 101] |  |  |  |  |  |  |  | 1000 to 10000 | 1000 to 10000 | 1000 to 10000 |  | 
CC(=O)NC1CCN(c2nc(NCc3ccccc3-c3cc4ccccc4[nH]3)n3ncc(C(C)C)c3n2)CC1 [Compound 111] | > 1000 | > 1000 | > 1000 | B (B=less than 200 fold, but greater than 20 fold) | B (B=less than 200 fold, but greater than 20 fold) | C (C=less than 20 fold) | < 100 |  | 1000 to 10000 | 1000 to 10000 |  | 
CC(C)c1cnn2c(NCc3ccccc3-c3cc4ccccc4[nH]3)nc(NC3CCOCC3)nc12 [Compound 114] | > 1000 | > 1000 | > 1000 | A (A=greater than 200 fold) | B (B=less than 200 fold, but greater than 20 fold) | B (B=less than 200 fold, but greater than 20 fold) | 100 to 1000 |  | 1000 to 10000 | 1000 to 10000 |  | 
CC(C)c1cnn2c(NCc3ccccc3-c3cc4ccccc4[nH]3)nc(N3CCC(C(N)=O)CC3)nc12 [Compound 117] | > 1000 | > 1000 | > 1000 | A (A=greater than 200 fold) | A (A=greater than 200 fold) | B (B=less than 200 fold, but greater than 20 fold) | 100 to 1000 |  | 1000 to 10000 | 1000 to 10000 |  | 
CC(C)c1cnn2c(NCc3ccccc3-c3cn4ccc(F)cc4n3)nc(N3CCC(N)CC3)nc12 [Compound 124] | 100 to 1000 | 100 to 1000 | < 100 | B (B=less than 200 fold, but greater than 20 fold) | B (B=less than 200 fold, but greater than 20 fold) | C (C=less than 20 fold) | < 100 | < 1000 |  | < 1000 | < 1000 | < 1000
CC(C)c1cnn2c(NCc3ccccc3-n3cc4c(n3)CCOC4)nc(N3CCC(N)CC3)nc12 [Compound 133] | > 1000 | 100 to 1000 | 100 to 1000 | A (A=greater than 200 fold) | B (B=less than 200 fold, but greater than 20 fold) | B (B=less than 200 fold, but greater than 20 fold) | < 100 | < 1000 |  | < 1000 | < 1000 | < 1000
CC(C)c1cnn2c(NCc3c(Cl)cccc3-c3ccc4[nH]cnc4c3)nc(N3CCC(N)CC3)nc12 [Compound 136] | > 1000 | > 1000 | 100 to 1000 | A (A=greater than 200 fold) | A (A=greater than 200 fold) | B (B=less than 200 fold, but greater than 20 fold) | < 100 | 1000 to 10000 |  | 1000 to 10000 | < 1000 | < 1000
CC(C)c1cnn2c(NCc3ccccc3-n3cc4ccncc4n3)nc(N3CCC(N)CC3)nc12 [Compound 139] | > 1000 | 100 to 1000 | 100 to 1000 | A (A=greater than 200 fold) | B (B=less than 200 fold, but greater than 20 fold) | B (B=less than 200 fold, but greater than 20 fold) | < 100 | < 1000 |  | < 1000 | < 1000 | < 1000
CC(C)CC(=O)Nc1cccc2cc(-c3ccccc3CNc3nc(N4CCC(N)CC4)nc4c(C(C)C)cnn34)[nH]c12 [Compound 145] | 100 to 1000 | 100 to 1000 | < 100 | B (B=less than 200 fold, but greater than 20 fold) | B (B=less than 200 fold, but greater than 20 fold) | C (C=less than 20 fold) | < 100 | < 1000 |  | < 1000 | < 1000 | < 1000
CC(C)c1cnn2c(NCc3ccccc3-n3cc4cc(C(N)=O)ccc4n3)nc(N3CCC(N)CC3)nc12 [Compound 146] | 100 to 1000 | 100 to 1000 | 100 to 1000 | A (A=greater than 200 fold) | A (A=greater than 200 fold) | B (B=less than 200 fold, but greater than 20 fold) | < 100 | < 1000 |  | < 1000 | < 1000 | < 1000
CC(C)c1cnn2c(NCc3ccccc3-n3cc4cc(C(=O)N5CCCC5)ccc4n3)nc(N3CCC(N)CC3)nc12 [Compound 147] | > 1000 | > 1000 | 100 to 1000 | A (A=greater than 200 fold) | B (B=less than 200 fold, but greater than 20 fold) | B (B=less than 200 fold, but greater than 20 fold) | < 100 | < 1000 |  | 1000 to 10000 | < 1000 | < 1000
